ChEMBL document CHEMBL5233265, “Recent advances in the design and development of formyl peptide receptor 2 (FPR2/ALX) agonists as pro-resolving agents with diverse therapeutic potential” (Eur J Med Chem, 2021)

Legend:
fMet-Leu-Phe receptor [1] = target: T1, fMet-Leu-Phe receptor (Homo sapiens, UniProt P21462); experiment: Agonist activity at human FPR1 expressed in CHO-A12 cells assessed as cAMP level incubated for 1.5 hr by HTRF assay; type: cell-based
T1 sequence (P21462 whole entry): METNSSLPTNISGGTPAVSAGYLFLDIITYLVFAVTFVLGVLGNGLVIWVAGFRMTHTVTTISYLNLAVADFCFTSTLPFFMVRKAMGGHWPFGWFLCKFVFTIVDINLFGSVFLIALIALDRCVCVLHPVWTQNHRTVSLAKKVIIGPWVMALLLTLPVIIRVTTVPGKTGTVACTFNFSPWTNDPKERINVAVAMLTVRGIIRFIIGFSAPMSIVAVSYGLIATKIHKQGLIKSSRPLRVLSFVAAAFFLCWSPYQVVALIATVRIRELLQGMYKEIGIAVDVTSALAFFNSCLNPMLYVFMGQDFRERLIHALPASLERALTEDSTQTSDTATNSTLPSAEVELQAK

[2] = target: T2, N-formyl peptide receptor 2 (Homo sapiens, UniProt P25090); experiment: Agonist activity at human FPR2 expressed in CHO-A12 cells assessed as cAMP level incubated for 1.5 hr by HTRF assay; type: cell-based
T2 sequence (P25090 whole entry): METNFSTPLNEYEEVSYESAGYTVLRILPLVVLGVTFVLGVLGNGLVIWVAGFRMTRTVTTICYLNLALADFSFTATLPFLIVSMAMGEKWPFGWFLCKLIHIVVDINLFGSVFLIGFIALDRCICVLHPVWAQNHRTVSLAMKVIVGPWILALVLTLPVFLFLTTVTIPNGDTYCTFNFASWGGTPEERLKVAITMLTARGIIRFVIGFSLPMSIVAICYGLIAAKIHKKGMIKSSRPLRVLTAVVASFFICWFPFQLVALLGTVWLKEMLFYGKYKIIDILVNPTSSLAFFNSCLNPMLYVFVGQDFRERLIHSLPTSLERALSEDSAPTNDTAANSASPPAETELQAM

fMet-Leu-Phe receptor [3] = target: T3, fMet-Leu-Phe receptor (Mus musculus, UniProt P33766); experiment: Agonist activity at mouse FPR1 expressed in CHO-A12 cells assessed as cAMP level incubated for 1.5 hr by HTRF assay; type: cell-based
T3 sequence (P33766 whole entry): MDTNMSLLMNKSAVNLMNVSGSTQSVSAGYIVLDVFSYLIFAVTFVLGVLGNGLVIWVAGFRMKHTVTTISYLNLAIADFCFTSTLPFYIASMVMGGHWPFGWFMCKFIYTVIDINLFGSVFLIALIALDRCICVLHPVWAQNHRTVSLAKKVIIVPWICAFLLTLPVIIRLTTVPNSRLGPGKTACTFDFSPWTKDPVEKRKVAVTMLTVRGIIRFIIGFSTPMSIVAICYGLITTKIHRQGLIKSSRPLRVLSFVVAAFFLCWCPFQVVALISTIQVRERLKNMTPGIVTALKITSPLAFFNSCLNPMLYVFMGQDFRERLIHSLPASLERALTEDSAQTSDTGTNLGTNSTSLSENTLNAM

[4] = target: T4, Formyl peptide receptor 2 (Mus musculus, UniProt O88536); experiment: Agonist activity at mouse FPR2 expressed in CHO-A12 cells assessed as cAMP level incubated for 1.5 hr by HTRF assay; type: cell-based
T4 sequence (O88536 whole entry): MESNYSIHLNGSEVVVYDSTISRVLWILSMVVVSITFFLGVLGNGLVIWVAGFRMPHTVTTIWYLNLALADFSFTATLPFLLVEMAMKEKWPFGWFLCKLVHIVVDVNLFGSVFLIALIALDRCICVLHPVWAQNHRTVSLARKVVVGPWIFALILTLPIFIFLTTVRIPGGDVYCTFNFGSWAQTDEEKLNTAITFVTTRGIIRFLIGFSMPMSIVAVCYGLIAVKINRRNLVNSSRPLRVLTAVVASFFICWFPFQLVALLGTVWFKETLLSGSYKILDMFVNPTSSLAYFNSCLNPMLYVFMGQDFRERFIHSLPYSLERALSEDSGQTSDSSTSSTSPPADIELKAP

[5] = target: T5, Formyl peptide receptor-related sequence 1 (Mus musculus, UniProt O08790); experiment: Agonist activity at mouse FPR3 expressed in CHO-A12 cells assessed as cAMP level incubated for 1.5 hr by HTRF assay; type: cell-based
T5 sequence (O08790 whole entry): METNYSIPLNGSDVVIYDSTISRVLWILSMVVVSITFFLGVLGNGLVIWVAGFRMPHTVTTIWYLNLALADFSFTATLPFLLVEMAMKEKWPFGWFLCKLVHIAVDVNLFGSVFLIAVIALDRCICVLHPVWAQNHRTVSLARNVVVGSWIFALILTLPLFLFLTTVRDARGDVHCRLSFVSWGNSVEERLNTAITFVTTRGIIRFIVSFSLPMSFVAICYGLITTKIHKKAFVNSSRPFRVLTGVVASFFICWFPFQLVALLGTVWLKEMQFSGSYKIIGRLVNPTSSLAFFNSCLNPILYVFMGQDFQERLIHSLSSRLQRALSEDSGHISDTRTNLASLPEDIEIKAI

[6] = target: T2, N-formyl peptide receptor 2; experiment: Agonist activity at human FPR2 expressed in CHO-K1 cells by beta-arrestin recruitment assay; type: cell-based
HL-60 [7] = experiment: Induction of cell migration in human HL-60 cells incubated for 120 mins by transwell assay; type: functional, cell-based; settings: HL-60, 2 h
HL-60 [8] = experiment: Inhibition of cell migration in human HL-60 cells incubated for 120 mins in presence of serum amyloid A by transwell assay; type: functional, cell-based; settings: HL-60, 2 h
Mus musculus [9] = experiment: Neuroprotective activity against Myocardial infarction C57BL/6 mouse model assessed as reduction in infarct area at 1 mg/kg,po qd measured after 4 weeks; type: functional; design: scale not given: the % may be the effect or the level left
Mus musculus [10] = experiment: Neuroprotective activity against Myocardial infarction C57BL/6 mouse model assessed as reduction in infarct area at 10 mg/kg,po qd measured after 4 weeks; type: functional; design: scale not given: the % may be the effect or the level left
Rattus norvegicus [11] = experiment: Neuroprotective activity against ischemia-reperfusion injury Sprague-Dawley rat model assessed as increase in ejection fraction at 10 mg/kg,po qd measured after 6 weeks; type: functional
Rattus norvegicus [12] = experiment: Neuroprotective activity against ischemia-reperfusion injury Sprague-Dawley rat model assessed as increase in proximal viable myocardium at 10 mg/kg,po qd measured after 6 weeks; type: functional
Rattus norvegicus [13] = experiment: Neuroprotective activity against ischemia-reperfusion injury Sprague-Dawley rat model assessed as increase in mid viable myocardium at 10 mg/kg,po qd measured after 6 weeks; type: functional
Rattus norvegicus [14] = experiment: Neuroprotective activity against ischemia-reperfusion injury Sprague-Dawley rat model assessed as increase in distal viable myocardium at 10 mg/kg,po qd measured after 6 weeks; type: functional
Mus musculus [15] = experiment: Neuroprotective activity against Myocardial infarction C57BL/6 mouse model assessed as fold increase in infarct wall thickness at 10 mg/kg,po qd measured after 4 weeks; type: functional

With `Cn1c(C(C)(C)C)c(NC(=O)Nc2ccc(Cl)cc2)c(=O)n1-c1ccccc1` the EC50 (fMet-Leu-Phe receptor [1]) was 0.05 µM, the EC50 [2] was 0.01 µM and the EC50 (fMet-Leu-Phe receptor [3]) was 0.02 µM. The EC50 [4] was 0.05 µM, the EC50 [5] was over 1 µM and the EC50 [6] was 3.1 µM. The EC50 (HL-60 [7]) was 0.078 µM, the IC50 (HL-60 [8]) was 0.189 µM and the Activity (Mus musculus [9]) was 44%. For the same molecule, the Activity (Mus musculus [10]) was 49%, the Activity (Rattus norvegicus [11]) was 32% and the Activity (Rattus norvegicus [12]) was 34%. For the same molecule, the Activity (Rattus norvegicus [13]) was 44%, the Activity (Rattus norvegicus [14]) was 35% and the “fold change (FC)” value (Mus musculus [15]) was 1.6.
